Experiments:
H1975 cells = test: 7-AAD / annexin V cell death staining; assay type: cell-based; details: 0.7 μM, 72 hours
Experimental: To verify the mechanism of the loss of cell viability, H1975 cells were treated with MPC-0767 (0.7 μM) for 72 hours. After this time, cells were stained with 7-amino-actinomycin D (7-AAD) and annexin V, markers of cell membrane integrity and of apoptosis, respectively.

[1] = system: EGFR wild type (WT) in BaF3 cells; test: Cell surface EGFR expression in BaF3 cells by flow cytometry; assay type: cell-based, murine; details: Mus musculus; BaF3, 24 hours; read-out: EC50 for reduction of cell surface EGFR WT
Source text: (§1) To determine whether MPC-0767 can also promote degradation of an EGFR exon20ins mutant, the BaF3 murine cell line was used (Warmuth et al., Curr Opin Oncol., 200719: 55-60). This cell line is dependent upon exogenous IL-3 for survival/growth but upon introduction of an oncogene, the cells no longer depend on exogenous IL-3, and instead survival is driven by the introduced oncogene. Thus, drugs that target the introduced oncogene will reduce BaF3 cell viability providing a mechanism to screen small molecules against relevant oncogenic mutations that arise in the clinic.
(§2) BaF3 cells harboring EGFR wild type (WT) or EGFR exon20 V769_D770insASV mutant were treated with increasing concentrations of MPC-0767 for 24 hours. After this time, cells were harvested for flow cytometry to assess cell surface EGFR expression (antibody for detection recognized both WT and mutant proteins). […] We further tested whether this finding translated to reduced survival in BaF3 cells expressing the EGFR mutant. Parental BaF3 cells (no mutant) or cells harboring EGFR exon20 V769_D770insASV were treated with increasing concentrations of MPC-0767 for 72 hours after which cell viability was determined using CellTiter-Glo®.

[2] = system: EGFR exon20 V769_D770insASV mutant in BaF3 cells; test: as above; assay type: cell-based, murine; details: Mus musculus; BaF3, 24 hours; read-out: EC50 for reduction of cell surface EGFR exon20 V769_D770insASV mutant
Source text: as §1, §2

FLT3 WT AML cells = test: CellTiter-Glo viability of AML cell lines and primary AML samples; assay type: cell-based; details: FLT3 WT cells (n=11), 72 hours; read-out: geometric mean EC50 (cell viability)
Experimental: (§3) Exponentially growing cell lines were counted and seeded into 96-well clear, flat-bottomed polystyrene microtiter plates in a final volume of 90 μL per well. For primary AML samples, cells were seeded into 384 well plates at a density of 2×10^4 cells in a final volume of 27 μL per well. To treat cell lines or primary samples 10 μL or 3 μL, respectively, of 10× concentrations of MPC-0767, were then added to the cells to give a final concentration of 10000 nM, 5000 nM, 2500 nM, 1250 nM, 625 nM, 313 nM, 156 nM, 78 nM, 39 and 20 nM. […] Cells were seeded and treated in duplicate. After incubation for three days, cell viability was determined by measuring intracellular ATP levels using the CellTiter-Glo® assay system by adding to each well either 100 μL for 96 well plates, or 30 μL for 384 well plates. Luminescence was detected using a plate reader.
(§4) The effect of drugs on cell viability was calculated by comparing the ATP levels (luminescence counts per second) of cells exposed to test compound with those of cells exposed to vehicle (DMSO) alone. The half-maximal effective concentration (EC50) for each cell line was determined using the R DRC package (R Core Team, 2017). In brief, the dose-response curves were fitted with a four-parameter logistic regression model (LL.4) according to (Eq-1) and the absolute EC50 was estimated using a confidence interval of 0.95.

FLT3-ITD AML cells = test: as above; assay type: cell-based; details: FLT3-ITD cells (n=8), 72 hours; read-out: geometric mean EC50 (cell viability)
Experimental: as §3, §4

[3] = system: cell surface FLT3 in MOLM-13 cells; test: Cell surface FLT3 by flow cytometry; assay type: cell-based, human; details: 24 hours
Experimental: (§5) To determine whether MPC-0767 can promote the degradation of FLT3-ITD and abolish downstream signaling, MV-4-11 and MOLM-13 cells were treated with vehicle or MPC-0767 (1 μM) for 24 hours. Cells were harvested for flow cytometry to assess cell surface FLT3 protein abundance. In addition, the measurement of a key phosphorylation site of S6 (phospho-S6) was used as a marker for oncogenic FLT3-ITD signaling (Zimmerman et al., Blood. 2013 122(22): 3607-3615). Indeed, in both MV-4-11 and MOLM-13 cells treated with MPC-0767 there was a >65% reduction in cell surface FLT3 (FIGS. 10A and 10B, respectively) and >70% reduction in phospho-S6 (FIGS. 10C and 10D, respectively).
We next explored whether the synergistic activity of MPC-0767 and ATO was due to a more complete abrogation of FLT3-ITD oncogenic signaling. […] After this time cells were harvested for the assessment of cell surface FLT3 expression by flow cytometry. To additionally measure the effects of abrogating FLT3, we assessed phospho-ERK (pERK) and phospho-S6 (pS6), as these are two known downstream effectors.

TUR cells = test: CellTiter-Glo cell viability (single agent and combination); assay type: cell-based; details: 72 h
[4] = system: phospho-S6 in MV-4-11 cells; test: Phospho-S6 by flow cytometry; assay type: cell-based; details: MV-4-11, 1 μM, 24 hours
Experimental: as §5

[5] = cited from earlier work
[6] = system: MOLM-13 FLT3-ITD AML cell line; test: Systemic survival xenograft study, MPC-0767 with 5′azacitidine; details: single agents: MPC-0767 75 mg/kg p.o.; 5′azacitidine 2 mg/kg QD×4 i.p.; vs vehicle
Experimental: A systemic survival xenograft study was performed using the MOLM-13 FLT3-ITD harboring AML cell line.
Before tumor cell inoculation, NOD/SCID mice were pre-treated for 2 days with a daily intraperitoneal injection of 100 mg/kg cyclophosphamide to facilitate engraftment of the human MOLM-13 tumor cells. After the injection of cyclophosphamide, the animals were allowed to recover for 24 hours prior to inoculation with human MOLM-13 tumor cells. Each mouse was then inoculated with 1×10^7 MOLM-13 cells in 100 μL PBS via intravenous tail vein injection. Mice were next randomized into 4 groups of 6 mice each. […] Viability and body weight loss were monitored daily.

ME1 (ME-1) cells = test: CellTiter-Glo cell viability (single agent and combination); assay type: cell-based; details: ME1, 72 h
[7] = system: primary AML samples harboring FLT3-ITD; test: Annexin V / 7AAD cell death by flow cytometry; assay type: cell-based, human; details: increasing concentrations, 72 hours, 4 primary samples
Experimental: To test whether the anti-leukemic effect of MPC-0767 is due to induction of cell death, 4 primary AML samples (all harboring FLT3-ITD) were treated with increasing concentrations of MPC-0767 for 72 hours. Samples were then processed for quantification by flow cytometry of cells positive for annexin V and 7AAD. These markers allow the detection of cell death, specifically dead (7AAD only positive), early apoptotic (annexin V only positive) or late stage apoptotic/necrotic (7AAD and annexin V positive) populations were combined to give a readout of cell death.

For C[C@H](N)C(=O)O[C@@H](C)C(=O)N1CCC(CCn2c(Sc3cc4c(cc3Br)OCO4)nc3c(N)ncnc32)CC1 [MPC-0767], the “percentage of cells displaying markers of cell death” value (H1975 cells) was “increase”, the “percentage of viable cells (7-AAD negative and annexin V negative)” value (H1975 cells) was “decrease” and the EC50 [1] was 1000 nM. The EC50 [2] was 200 nM, the EC50 (FLT3 WT AML cells) was 1520 nM and the EC50 (FLT3-ITD AML cells) was 576 nM. For the same molecule, the “reduction in cell surface FLT3” value ([3]; MOLM-13, 1 μM) was greater than 65%, the “FLT3 level (cell surface)” value ([3]; MOLM-13, MPC-0767 800 nM, ATO 625 nM or combination) was “reduced” and the EC50 (TUR cells) was 550 nM. The “MPC-0767 Sensitivity” value (TUR cells) was “Sensitive (cell lines having EC50 values below 1 μM were considered to be sensitive)”, the “reduction in phospho-S6” value [4] was greater than 70% and the aqueous solubility [5] was “improved aqueous solubility”. The “increase in median survival” value [6] was 5.5 days, the “MPC-0767 Sensitivity” value (ME1 (ME-1) cells) was “Resistant (EC50 values above 1 μM considered resistant)” and the EC50 (ME1 (ME-1) cells; ME-1) was 3420 nM. For the same molecule, the “cell death (annexin V and/or 7AAD positive)” value [7] was “dose-dependent increase in cell death”.

Source: US20200253979A1, “THERAPEUTIC METHODS RELATING TO HSP90 INHIBITORS” (AI Therapeutics, Inc., priority 2017, published 2020)
